Laboratory results reported in PMC9560598 (PLoS Pathogens, 2022).
“And” between values parts separate entries of the source, which are not always exact repeats. Identical values can stand only once. Like-named read-outs stand apart in the source and are kept apart here. Bridge positions count the residues as written; N and C are the ends. Ends that are not written are not given here. Peptide text beside a SMILES is read from it.

How the values were obtained:
[1] = test system: non-encapsulated Sterne strain of B. anthracis; details: cited from earlier work
[2] = test system: encapsulated WT B. anthracis Ames bacilli; details: for killing: encapsulated WT Ames bacilli, 2 h
[3] = type: binding, Bacillus anthracis; details: n = 3
[4] = test system: encapsulated killed WT B. anthracis bacilli; type: cell-based, Bacillus anthracis
[5] = test system: encapsulated WT B. anthracis Ames bacilli; type: cell-based, Bacillus anthracis

| Compound | Killing of the non-encapsulated Sterne strain [1] | % of 0 μg/ml Control, Mean [2] | killing ([2]; 20 μg/ml) [%] | Binding to purified capsule (shift in electrophoretic mobility towards the cathode) [3] | Concentrations at which bactericidal activity (significant killing) was observed [2] [µg/mL] | also measured |
| --- | --- | --- | --- | --- | --- | --- |
| CC[C@H](C)[C@@H]1NC(=O)[C@H](CCCCN)NC(=O)[C@H]([C@@H](C)O)NC(=O)[C@H](Cc2ccccc2)NC(=O)[C@H]([C@@H](C)CC)NC(=O)[C@@H]2CCCN2C(=O)[C@@H]2CSSC[C@@H](C(=O)N[C@@H](CCCCN)C(=O)O)NC(=O)[C@@H]3CSSC[C@H](NC(=O)[C@H](CC(N)=O)NC(=O)[C@H](Cc4ccc(O)cc4)NC(=O)[C@H](Cc4c[nH]cn4)NC(=O)[C@@H](N)CC(=O)O)C(=O)N[C@@H](C(C)C)C(=O)N[C@@H](CO)C(=O)N[C@@H](CO)C(=O)NCC(=O)NCC(=O)N[C@@H](CCC(N)=O)C(=O)N[C@@H](CSSC[C@H](NC(=O)[C@H]([C@@H](C)O)NC(=O)CNC(=O)[C@H](CCC(N)=O)NC1=O)C(=O)N[C@@H](Cc1ccc(O)cc1)C(=O)N[C@@H](CCCNC(=N)N)C(=O)NCC(=O)N[C@@H](CCCCN)C(=O)N[C@@H](C)C(=O)N[C@@H](CCCCN)C(=O)N3)C(=O)N[C@@H](CC(C)C)C(=O)N[C@@H](Cc1ccc(O)cc1)C(=O)N[C@@H](CO)C(=O)N[C@@H](C)C(=O)N2 [HBD-1] (H-DHYNCVSSGGQCLYSACPIFTKIQGTCYRGKAKCCK-OH; disulfide 5-34, 12-27, 17-35 (inferred); N-terminus and C-terminus assumed) | could not | 59.1% | 41 |  |  |  |
| GIGDPVTCLKSGAICHPVFCPRRYKQIGTCGLPGTKCCKKP (disulfide 8-37, 15-30, 20-38 (inferred)) [HBD-2] | could not | 34.5% and 26.0% | 65 | bound to capsule |  | Bactericidal activity against the Sterne strain [1]: modest bactericidal activity |
| GIINTLQKYYCRVRGGRCAVLSCLPKEEQIGKCSTRGRKCCRRKK (disulfide 11-40, 18-33, 23-41 (inferred)) [HBD-3] | could kill |  | 71 | bound to capsule | 0.2 to 20 | % reduction of MFI [4]: 29.6639% and 31.2268% and 35.1463% and 34.7672%; % reduction of MFI, avg [4]: 32.7011%; mean fluorescence intensity (MFI) [4]: 706.28 and 766.2 and 635.97 and 635.34 and 496.77 and 526.94 and 412.45 and 414.45; mean fluorescence intensity (MFI), avg [4]: 685.947 and 462.653; Localisation of HBD-3 on bacilli [5]: only on the outer surface of the capsule; killing ([2]; 0.2 μg/ml): 58% |
| Melittin |  |  |  |  | 0.1 to 100 |  |
| Nisin |  |  |  |  | 0.1 to 100 |  |
| Polymyxin B |  |  |  |  | 1 to 100 |  |
